Residues, ends and D or L forms follow the SMILES beside them.
Key:
[1] = tested on: parathyroidectomized rats; assay: Histological evaluation of selected tissues (toxicity experiments); type: in vivo, rat; conditions: miniosmotic pump, about 25 μg per day
Procedure: A miniosmotic pump (Alzet) was loaded with about 1.5 ml of the chemically synthesized peptide having an N-terminal acetyl group (SEQ ID NO:2) in 0.1% acetic acid so as to give a calculated daily delivery of about 25 μg per day. A pump was implanted under the subcutaneous fascia of the dorsal aspect of the left side of the thorax of five rats which had been parathyroldectomized seven days earlier. Five similarly parathyroldectomized rats received similar implants containing only 0.1% acetic acid. Five intact rats were also used as controls.
Histological evaluation of selected tissues of the five rats of each of the groups indicated in Table One were carried out microscopically.

ovariectomized rats = assay: Autopsy after eight week administration to ovariectomized rats; type: in vivo, rat; conditions: 100 μg s.c. every 24 hours for eight weeks
Procedure: Eight weeks after ovariectomization, five ovariectomized rats were injected subcutaneously with 100 μl of a 0.1% acetic acid solution containing 100 μg of the chemically synthesized peptide in which the N-terminal amino group was modified with an acetyl group (SEQ ID NO:2). This was done every 24 hours for eight weeks. On day 54, a tetracycline hydrochloride solution was injected intramuscularly into the right gluteus maximus of each rat so as to give 24 mg per Kg of body weight, as described previously. On day 56, a second dose of tetracycline hydrochloride was injected and the rats were sacrificed on the 57th day.
Post-mortem blood was taken by cardiac puncture and serum frozen until analyzed. An autopsy was performed on each rat.

Autopsy findings (ovariectomized rats): No obvious pathology was observed
Compound: CC[C@H](C)[C@H](NC(=O)CNC(C)=O)C(=O)NCC(=O)N[C@@H](CCCCN)C(=O)N[C@@H](CCCNC(=N)N)C(=O)N[C@H](C(=O)N[C@@H](CC(N)=O)C(=O)N[C@@H](CCC(=O)O)C(=O)N[C@@H](Cc1c[nH]cn1)C(=O)N[C@H](C(=O)N[C@@H](C)C(=O)N[C@@H](CC(=O)O)C(=O)N[C@@H](CS)C(=O)N[C@@H](CCCCN)C(=O)N[C@H](C(=O)N[C@@H](CCCCN)C(=O)N1CCC[C@H]1C(=O)N[C@@H](CC(N)=O)C(=O)N[C@H](C(=O)N[C@@H](CC(C)C)C(=O)N[C@@H](Cc1c[nH]cn1)C(=O)N[C@@H](CCCCN)C(=O)N[C@@H](CCCCN)C(=O)N[C@@H](C)C(=O)N[C@@H](C)C(=O)N[C@@H](CCC(=O)O)C(=O)N[C@H](C(=O)N[C@@H](CC(C)C)C(=O)N[C@@H](CCSC)C(=O)N[C@H](C(=O)N[C@@H](CC(C)C)C(=O)N[C@@H](CC(=O)O)C(=O)N[C@@H](CCC(N)=O)C(=O)N[C@@H](CC(N)=O)C(=O)N[C@@H](CCC(N)=O)C(=O)N1CCC[C@H]1C(=O)O)C(C)C)[C@@H](C)O)[C@@H](C)O)[C@@H](C)CC)[C@@H](C)O)[C@@H](C)O [SEQ ID NO:2] (Ac-GIGKRTNEHTADCKIKPNTLHKKAAETLMVLDQNQP-OH)
Histological evaluation of selected tissues [1]: No evidence of toxic lesions

Source: US6743895B1, “Bone stimulating factor” (Osteopharm Inc., priority 1995, dated 2004)
